Literature values as cited in patent US6436417B1, “Acne treatment compositions” (Blistex Inc., priority 2001, dated 2002).

Key:
[1] = in sunlight and in the presence of ferric salts
[2] = not given; remark: listed apart in the source

pH of the aqueous solution (1 gram in about 460 ml of water at room temperature): 2.4
solubility in water (volume of water dissolving 1 gram) (1 gram, water, room temperature): about 460 ml
solubility in water (water, room temperature): about 0.2 % by weight
stability to discoloration [1]: strong tendency to discolor
solubility in alcohol (volume of alcohol dissolving 1 gram) [2]: about 2.7 ml
SMILES: O=C(O)c1ccccc1O [Salicylic acid, salicylic acid]
